Reference: patent US4107424A, “1-N-[(S)-α-hydroxy-ω-aminoacyl] derivatives of 3',4'-dideoxykanamycin B and 3'-deoxykanamycin B antibiotics” (Zaidan Hojin Biseibutsu Kagaku Kenkyu Kai, priority 1972, dated 1978)
Values after ≈ are worked out from the molar mass of the structure shown.

Columns and labels:
[1] = system: Escherichia coli K-12 JR 66/W 677; assay: Minimal inhibitory concentration, agar dilution streak method; format: cell-based; settings: Escherichia coli, 18 h, read-out: minimum inhibitory concentrations
Description: (§1) *Agar Agar dilution streak method (nutrient agar, 37° C, 18 hours)
(§2) *Agar dilution streak method (nutrient agar, 37° C, 18 hours).

[2] = system: Pseudomonas aeruginosa GN 315; assay: as above; format: cell-based; settings: GN315, nutrient agar, 37° C, 18 hours, drug-resistant strain, read-out: minimum inhibitory concentrations
Description: as §1, §2

[3] = system: Escherichia coli K-12 LA 290 R 55; assay: as above; format: cell-based; settings: 18 h, read-out: minimum inhibitory concentrations
Description: as §1, §2

[4] = system: Escherichia coli K-12 ML 1629; assay: as above; format: cell-based; settings: K12ML1629, nutrient agar, 37° C, 18 hours, drug-resistant strain, read-out: minimum inhibitory concentrations
Description: as §1, §2

mice = assay: Acute intravenous toxicity (LD50) in mice; settings: in words
[5] = system: Staphylococcus aureus FDA 209P; assay: Minimal inhibitory concentration, agar dilution streak method; format: cell-based; settings: FDA209P, nutrient agar, 37° C, 18 hours, read-out: minimum inhibitory concentrations
Description: as §1, §2

[6] = system: Escherichia coli K-12 ML 1410; assay: as above; format: cell-based; settings: K12ML1410, nutrient agar, 37° C, 18 hours, read-out: minimum inhibitory concentrations
Description: as §1, §2

[7] = system: Pseudomonas aeruginosa No.12; assay: as above; format: cell-based; settings: nutrient agar, 37° C, 18 hours, read-out: minimum inhibitory concentrations
Description: as §1, §2

[8] = system: Pseudomonas aeruginosa A 3; assay: as above; format: cell-based; settings: A3, nutrient agar, 37° C, 18 hours, read-out: minimum inhibitory concentrations
Description: as §1, §2

[9] = system: Escherichia coli K-12 W 677; assay: as above; format: cell-based; settings: K12W677, nutrient agar, 37° C, 18 hours, read-out: minimum inhibitory concentrations
Description: as §1, §2

[10] = system: gram-positive and gram-negative bacteria; assay: Antibacterial activity (in words); format: cell-based
Description: [α]D^22 + 38°, (c 0.85, water).

in vivo = settings: mouse, iv

Row | Compound | MIC [1] [µg/mL] | MIC [2] [µg/mL] | MIC [3] [µg/mL] | MIC [4] [µg/mL] | toxicity (mice) | MIC [5] [µg/mL] | MIC [6] [µg/mL] | MIC [7] [µg/mL] | MIC [8] [µg/mL] | MIC [9] [µg/mL] | antibacterial activity compared with parent or reference substance ([10]; sensitive (and resistant) bacteria) | antibacterial activity ([10]; various gram-positive and gram-negative bacteria, including resistant strains) | LD50 (in vivo) [mg/kg]
1 | CNC[C@H]1O[C@H](O[C@H]2[C@H](O)[C@@H](O[C@H]3O[C@H](CO)[C@@H](O)[C@H](N)[C@H]3O)[C@H](N)C[C@@H]2N)[C@H](N)C[C@@H]1O [3'-deoxy-6'-N-methylkanamycin B] | 50 (≈ 104 µM) | 6.25 (≈ 13 µM) | 50 (≈ 104 µM) | 1.56 (≈ 3.24 µM) | – | – | – | – | – | – | – | – | –
2 | NC[C@H]1O[C@H](O[C@H]2[C@H](O)[C@@H](O[C@H]3O[C@H](CO)[C@@H](O)[C@H](N)[C@H]3O)[C@H](N)C[C@@H]2N)[C@H](N)C[C@@H]1O [3'-deoxykanamycin B] | 50 (≈ 107 µM) | 100 (≈ 214 µM) | 50 (≈ 107 µM) | 0.78 (≈ 1.67 µM) | – | – | – | – | – | – | – | – | –
3 | NC[C@H]1O[C@H](O[C@H]2[C@H](O[C@@H]3O[C@H](CO)[C@@H](O)[C@H]3O)[C@@H](O)[C@H](N)C[C@@H]2N)[C@H](N)C[C@@H]1O [3'-deoxyribostamycin] | > 100 | > 100 | > 100 | > 100 | – | – | – | – | – | – | – | – | –
4 | NCC[C@H](O)C(=O)N[C@@H]1C[C@H](N)[C@@H](O[C@H]2O[C@H](CN)[C@@H](O)C[C@H]2N)[C@H](O)[C@H]1O[C@H]1O[C@H](CO)[C@@H](O)[C@H](N)[C@H]1O [AHB-deoxykanamycin B, 1-N-[(S)-4-amino-2-hydroxybutyryl]-3'-deoxykanamycin B] | 3.12 (≈ 5.49 µM) | 50 (≈ 87.9 µM) | 0.78 (≈ 1.37 µM) | 0.78 (≈ 1.37 µM) | toxicity as low as that of their parent substances | 0.78 (≈ 1.37 µM) | 0.78 (≈ 1.37 µM) | 0.78 (≈ 1.37 µM) | 0.78 (≈ 1.37 µM) | 1.56 (≈ 2.74 µM) | antibacterial activity as high as that of their parent substances | high antibacterial activity against the kanamycin-resistant strains | > 100
